Legend:
[1] = system: Lewis Lung Carcinoma (LLC); assay: In vivo anticancer activity toward Lewis Lung Carcinoma (LLC); details: LLC in C57BL mice, 27 at 7.5 mg/kg, CDDP at 1.5 mg/kg
Text: (§1) Besides, it was as cytotoxic as 19 towards cancer cells while showing a more favorable selectivity index. On these basis, compound 27 was chosen for in vivo experiments against a syngeneic murine solid tumor model, the murine Lewis Lung Carcinoma (LLC). The tumor growth inhibition induced by 27 was compared with that promoted by cisplatin (CDDP), the most common chemotherapeutic drug used in the treatment of lung cancers. Nine days after tumor inoculation, tumor-bearing mice were randomized into vehicle control and treatment groups (8 mice per group). Control mice received the vehicle (0.2%v/v EtOH and 99.8%v/v of a saline solution), whereas treated groups received daily doses of 27 (7.5 mg · kg^−1 in the vehicle solution composed of 0.2%v/v EtOH and 99.8%v/v of saline solution) or CDDP (1.5 mg · kg^−1 in saline solution). Tumor growth was estimated at day 20 (Fig. 7a). As an indication of the adverse side effects, changes in the body weights of tumor-bearing mice were monitored at day 1 and daily from day 9.
Figure 7 In vivo testing of compound 27. Lewis lung carcinoma (LLC) was implanted i.m. (2 · 10^6 cells inoculum) into the right hind leg of 8-week old imbred C57BL mice. Nine days after tumor inoculation (palpable tumor), tumor-bearing mice were randomized into vehicle control and treatment groups (8 mice per group). Compound 27 was dosed daily at 7.5 mg/kg ip and CDDP was dosed daily at 1.5 mg/kg ip. At day 20, animals were sacrificed (i.e., before tumor can cause the animal discomfort), the legs were amputated at the proximal end of the femur, and the inhibition of tumor growth was determined according to the difference in weight of the tumor-bearing leg and the healthy leg of the animals expressed as % referred to the control animals. Control was constituted by vehicle (0.2%v/v EtOH and 99.8%v/v of saline solution). CDDP was used as positive reference. Both 27 and CDDP were administered at the highest not toxic doses (7.5 and 1.5 mg/kg, respectively), as determined by MTD studies. (a) Average tumor weight (g) after 20 days of treatment with control or compounds. (b) Percentage of reduction in tumor growth after 20 days of treatment with respect to control mice. (c) Body weight changes. The body weight changes of LLC bearing C57BL mice treated with vehicle or tested compounds. Each drug was administered daily after 9 days from the tumor cell inoculum. Weights were measured at day 1 and daily from day 9. Error bars indicate the standard deviation.
All studies involving animal testing were carried out in accordance with the ethical guidelines for animal research adopted by the University of Padua, acknowledging the Italian regulation (D.L.G.S. 116/92) and European Directive 86/609/EEC as to the animal welfare and protection and the related codes of practice. […]

[2] = Body weight changes of LLC bearing mice; format: in vivo; details: LLC bearing C57BL mice, 27 daily 7.5 mg/kg ip
Text: as §1, with “Control mice received the vehicle (0.2%v/v EtOH and 99.8%v/v of a saline solution), whereas treated groups received daily doses of 27 (7.5 mg · kg^−1 in the vehicle solution composed of 0.2%v/v EtOH and 99.8%v/v of saline solution) or CDDP (1.5 mg · kg^−1 in saline solution). Tumor growth was estimated at day 20 (Fig. 7a).” left out
Figure 7 In vivo testing of compound 27. […] At day 20, animals were sacrificed (i.e., before tumor can cause the animal discomfort), the legs were amputated at the proximal end of the femur, and the inhibition of tumor growth was determined according to the difference in weight of the tumor-bearing leg and the healthy leg of the animals expressed as % referred to the control animals. […] Both 27 and CDDP were administered at the highest not toxic doses (7.5 and 1.5 mg/kg, respectively), as determined by MTD studies. […] Weights were measured at day 1 and daily from day 9. […]

[3] = MTD studies (highest not toxic dose); format: in vivo; details: C57BL, mouse, in vivo; daily ip; read-out: Highest not toxic dose as determined by MTD studies

## O=C(CN1CCOCC1)Nc1cccc(-c2cc(Nc3ccc(NC(=O)Nc4ccccc4)cc3)ncn2)c1 [Compound 27]
[1]; daily ip from day 9, day 20, versus vehicle control
  Inhibition of tumor growth (%): 84.7%
[1]; daily ip from day 9, day 20
  Average tumor weight (mean±S.D., g): 0.075 ± 0.03 g
[2]
  Body weight loss: < 10%
[3]
  MTD: 7.5 mg/kg

From paper PMC4645160, “Targeting kinases with anilinopyrimidines: discovery of N-phenyl-N’-[4-(pyrimidin-4-ylamino)phenyl]urea derivatives as selective inhibitors of class III receptor tyrosine kinase subfamily” (Scientific Reports, 2015)
